Experimental data as given in ChEMBL document CHEMBL3352205, “Indazole- and indole-5-carboxamides: selective and reversible monoamine oxidase B inhibitors with subnanomolar potency” (J Med Chem, 2014).
pIC50: −log10 of the molar value.

Tests used:
[1] = biological target: T1, Amine oxidase [flavin-containing] A (Rattus norvegicus, UniProt P21396); experiment: Inhibition of rat MAO-A from mitochondria-enriched rat liver fractions using p-tyraimne substrate
T1 sequence (P21396 whole entry): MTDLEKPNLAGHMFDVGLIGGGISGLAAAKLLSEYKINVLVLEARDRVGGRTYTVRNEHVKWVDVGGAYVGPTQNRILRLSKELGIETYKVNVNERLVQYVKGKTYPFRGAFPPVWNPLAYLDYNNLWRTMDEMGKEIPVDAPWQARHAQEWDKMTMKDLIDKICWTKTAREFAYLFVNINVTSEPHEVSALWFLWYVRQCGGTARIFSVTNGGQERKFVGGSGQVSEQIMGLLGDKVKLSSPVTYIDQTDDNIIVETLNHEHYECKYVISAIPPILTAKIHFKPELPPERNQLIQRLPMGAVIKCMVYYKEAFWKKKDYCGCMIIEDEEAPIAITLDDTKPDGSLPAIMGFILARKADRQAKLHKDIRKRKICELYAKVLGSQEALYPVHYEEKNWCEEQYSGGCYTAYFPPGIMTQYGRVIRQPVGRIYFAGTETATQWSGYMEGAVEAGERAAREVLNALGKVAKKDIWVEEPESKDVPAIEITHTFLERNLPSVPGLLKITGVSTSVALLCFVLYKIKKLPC

[2] = biological target: T2, Amine oxidase [flavin-containing] B (Homo sapiens, UniProt P27338); experiment: biochemical; assay type: cell-based
T2 sequence (P27338 whole entry): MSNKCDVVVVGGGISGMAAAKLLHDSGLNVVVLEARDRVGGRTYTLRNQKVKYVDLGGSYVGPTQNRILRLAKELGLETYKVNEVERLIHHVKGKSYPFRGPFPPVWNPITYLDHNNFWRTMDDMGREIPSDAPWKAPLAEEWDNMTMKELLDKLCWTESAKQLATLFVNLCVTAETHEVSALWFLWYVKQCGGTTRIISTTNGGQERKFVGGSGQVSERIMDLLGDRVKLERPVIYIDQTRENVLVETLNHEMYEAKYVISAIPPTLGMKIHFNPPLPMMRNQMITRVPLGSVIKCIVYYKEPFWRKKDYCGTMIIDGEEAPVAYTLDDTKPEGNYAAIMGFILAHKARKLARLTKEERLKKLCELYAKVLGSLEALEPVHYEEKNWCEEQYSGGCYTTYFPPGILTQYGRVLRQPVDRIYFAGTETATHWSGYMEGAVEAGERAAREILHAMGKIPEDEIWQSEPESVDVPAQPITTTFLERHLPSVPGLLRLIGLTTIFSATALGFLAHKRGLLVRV
Description: Inhibition of human recombinant MAO-B expressed in baculovirus-infected insect cells using p-tyraimne substrate

[3] = biological target: T3, Amine oxidase [flavin-containing] A (Homo sapiens, UniProt P21397); experiment: Inhibition of human recombinant MAO-A expressed in baculovirus-infected insect cells using p-tyraimne substrate; conditions: for pIC50: read-out: IC50
T3 sequence (P21397 whole entry): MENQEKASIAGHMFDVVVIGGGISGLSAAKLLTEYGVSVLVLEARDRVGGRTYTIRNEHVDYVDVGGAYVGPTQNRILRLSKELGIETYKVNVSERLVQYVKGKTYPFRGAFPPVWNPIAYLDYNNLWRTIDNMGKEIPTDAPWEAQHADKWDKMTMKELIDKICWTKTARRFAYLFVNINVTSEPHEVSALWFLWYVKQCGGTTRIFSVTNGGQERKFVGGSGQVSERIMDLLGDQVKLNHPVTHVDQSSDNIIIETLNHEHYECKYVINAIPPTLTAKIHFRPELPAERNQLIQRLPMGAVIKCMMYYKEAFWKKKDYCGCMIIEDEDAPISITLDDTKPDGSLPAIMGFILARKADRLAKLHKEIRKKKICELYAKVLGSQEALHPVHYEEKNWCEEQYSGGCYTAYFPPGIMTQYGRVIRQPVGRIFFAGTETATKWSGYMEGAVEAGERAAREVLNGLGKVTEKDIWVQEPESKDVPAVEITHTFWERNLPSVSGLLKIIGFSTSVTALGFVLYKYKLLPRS

[4] = biological target: T4, Amine oxidase [flavin-containing] B (Rattus norvegicus, UniProt P19643); experiment: Inhibition of rat MAO-B from mitochondria-enriched rat liver fractions using p-tyraimne substrate
T4 sequence (P19643 whole entry): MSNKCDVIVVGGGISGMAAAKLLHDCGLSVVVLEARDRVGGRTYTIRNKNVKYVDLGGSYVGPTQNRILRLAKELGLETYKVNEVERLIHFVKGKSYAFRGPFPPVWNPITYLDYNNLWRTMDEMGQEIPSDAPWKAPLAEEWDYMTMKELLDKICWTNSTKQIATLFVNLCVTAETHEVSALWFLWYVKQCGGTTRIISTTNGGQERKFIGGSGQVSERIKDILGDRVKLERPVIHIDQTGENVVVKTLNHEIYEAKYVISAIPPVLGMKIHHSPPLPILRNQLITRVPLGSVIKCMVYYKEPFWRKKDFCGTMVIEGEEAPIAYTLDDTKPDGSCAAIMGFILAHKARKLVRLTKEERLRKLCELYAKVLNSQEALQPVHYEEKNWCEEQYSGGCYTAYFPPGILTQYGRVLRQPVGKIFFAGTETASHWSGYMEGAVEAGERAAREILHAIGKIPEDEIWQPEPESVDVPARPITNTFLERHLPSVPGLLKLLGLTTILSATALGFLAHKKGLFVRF

Homo sapiens = species on record: Homo sapiens; experiment: Selectivity index, ratio of IC50 for human recombinant MAO-A to IC50 for human recombinant MAO-B
[5] = biological target: T4, Amine oxidase [flavin-containing] B; experiment: Inhibition of rat MAO-B in rat-liver mitochondrial-fraction using [14C]-PEA substrate
[6] = biological target: T1, Amine oxidase [flavin-containing] A; experiment: Inhibition of rat MAO-A in rat-liver mitochondrial-fraction using [14C]-5-HT substrate
[7] = biological target: T2, Amine oxidase [flavin-containing] B; experiment: Reversible inhibition of human recombinant MAO-B expressed in baculovirus-infected insect cells using p-tyraimne substrate at 1 nM for 22 mins; conditions: 0.001 µM

O=C(Nc1ccc(O)c(Cl)c1)c1ccc2cn[nH]c2c1 was tested, and the pIC50 [1] was less than 5.00, the pIC50 [2] was greater than 5.00 and the pIC50 [3] was less than 5.00. It also gave a pIC50 [4] of 5.48.

For O=[N+]([O-])c1ccc2[nH]ncc2c1, the pIC50 [2] was 5.60 and the IC50 [3] was “Not Active”.

For Cn1ccc2cc(C(=O)Nc3ccc(Cl)c(Cl)c3)ccc21, the pIC50 [1] was less than 5.00, the Ratio IC50 (Homo sapiens) was 4420 and the pIC50 [2] was 8.65. It also gave a pIC50 [3] of less than 5.00 and a pIC50 [4] of 8.95.

Work on O=C(Nc1ccc(Cl)c(O)c1)c1ccc2cn[nH]c2c1 yielded a pIC50 [1] of less than 5.00, a Ratio IC50 (Homo sapiens) of 2 and a pIC50 [2] of 5.21. It also gave a pIC50 [3] of less than 5.00 and a pIC50 [4] of less than 5.00.

In the case of C#CCNCc1cc2cc(OCc3ccccc3)ccc2[nH]1, the pIC50 [5] was 5.90 and the pIC50 [6] was 7.66.

COc1cc(NC(=O)c2ccc3cn[nH]c3c2)ccc1Cl was tested, and the pIC50 [1] was less than 5.00, the Ratio IC50 (Homo sapiens) was 4 and the pIC50 [2] was 5.56. The pIC50 [3] was less than 5.00 and the pIC50 [4] was less than 5.00.

O=C(Nc1ccc(F)c(F)c1)c1ccc2[nH]ncc2c1 showed a Ratio IC50 (Homo sapiens) of 6290.

Work on O=C(Nc1ccc2[nH]ncc2c1)c1cccc(Cl)c1Cl yielded a pIC50 [1] of less than 5.00, a pIC50 [2] of 5.59 and a pIC50 [3] of less than 5.00. It also gave a pIC50 [4] of less than 5.00.

Work on O=C(Nc1cnc(Cl)c(Cl)c1)c1ccc2[nH]ncc2c1 yielded a Ratio IC50 (Homo sapiens) of 1840.

In the case of O=C(Nc1ccc(Cl)c(F)c1)c1ccc2[nH]ncc2c1, the Ratio IC50 (Homo sapiens) was 15000 and the pIC50 [3] was less than 5.00.

O=C(Nc1ccc(Cl)c(Cl)c1)c1ccc2[nH]ccc2c1 was tested, and the pIC50 [1] was 5.17, the pIC50 [3] was 5.89 and the pIC50 [4] was 9.00.

Compound O=C(Nc1ccc(F)c(Cl)c1)c1ccc2cn[nH]c2c1 has a pIC50 [1] of less than 5.00, a Ratio IC50 (Homo sapiens) greater than 42 and a pIC50 [2] of 6.63. For the same compound, the pIC50 [3] was less than 5.00 and the pIC50 [4] was 5.97.

Work on O=C(Cc1ccc(Cl)c(Cl)c1)Nc1ccc2[nH]ncc2c1 yielded a pIC50 [1] of less than 5.00, a Ratio IC50 (Homo sapiens) greater than 11 and a pIC50 [2] of 6.05. For the same compound, the pIC50 [3] was less than 5.00 and the pIC50 [4] was less than 5.00.

O=C(Nc1ccccc1)c1ccc2[nH]ncc2c1 gave a pIC50 [1] of less than 5.00, a Ratio IC50 (Homo sapiens) greater than 86 and a pIC50 [2] of 6.93. For the same compound, the pIC50 [3] was less than 5.00 and the pIC50 [4] was 6.15.

O=C(Nc1cc(Cl)cc(Cl)c1)c1ccc2[nH]ncc2c1 showed a pIC50 [1] of less than 5.00, a Ratio IC50 (Homo sapiens) of 3640 and a pIC50 [2] of 8.56. It also gave a pIC50 [3] of less than 5.00 and a pIC50 [4] of 8.56.

O=C(Nc1ccc2[nH]ncc2c1)c1c(F)cccc1Cl gave a pIC50 [1] of less than 5.00, a pIC50 [2] of 5.48 and a pIC50 [3] of less than 5.00. The pIC50 [4] was less than 5.00.

COc1ccc(NC(=O)c2ccc3[nH]ncc3c2)cc1Cl was tested, and the Ratio IC50 (Homo sapiens) was 2920.

With COc1ccc(NC(=O)c2ccc3[nH]ncc3c2)cc1OC the Ratio IC50 (Homo sapiens) was greater than 54.

With O=C(Nc1ccc(Cl)c(O)c1)c1ccc2[nH]ncc2c1 the Ratio IC50 (Homo sapiens) was 80.

COc1ccc(NC(=O)c2ccc3cn[nH]c3c2)cc1OC gave a pIC50 [1] of less than 5.00, a pIC50 [2] of less than 5.00 and a pIC50 [3] of less than 5.00. For the same compound, the pIC50 [4] was less than 5.00.

Work on O=C(Nc1ccc(Cl)c(Cl)c1)c1ccc2nccn2c1 yielded a pIC50 [1] of less than 5.00, a Ratio IC50 (Homo sapiens) of 71 and a pIC50 [2] of 6.85. It also gave a pIC50 [3] of less than 5.00 and a pIC50 [4] of 5.94.

Work on O=C(Nc1ccc(O)c(Cl)c1)c1ccc2[nH]ncc2c1 yielded a Ratio IC50 (Homo sapiens) greater than 81.

In the case of O=C(NCc1ccc(Cl)c(Cl)c1)c1ccc2[nH]ncc2c1, the pIC50 [1] was less than 5.00, the Ratio IC50 (Homo sapiens) was greater than 25 and the pIC50 [2] was 6.41. For the same compound, the pIC50 [3] was less than 5.00 and the pIC50 [4] was 6.08.

In the case of Cn1cc(C(=O)Nc2ccc3[nH]ncc3c2)ccc1=O, the pIC50 [1] was less than 5.00, the pIC50 [2] was less than 5.00 and the pIC50 [3] was less than 5.00. For the same compound, the pIC50 [4] was less than 5.00.

Work on COc1cc(NC(=O)c2ccc3[nH]ncc3c2)ccc1Cl yielded a Ratio IC50 (Homo sapiens) of 2020.

In the case of O=C(Nc1ccc(Cl)c(F)c1)c1ccc2cn[nH]c2c1, the pIC50 [1] was less than 5.00, the Ratio IC50 (Homo sapiens) was greater than 31 and the pIC50 [2] was 6.50. The pIC50 [3] was less than 5.00 and the pIC50 [4] was 5.57.

For O=C(Nc1ccc(Cl)c(Cl)c1)c1ccc2[nH]ncc2c1, the pIC50 [1] was less than 5.00, the Ratio IC50 (Homo sapiens) was 17100 and the pIC50 [3] was no more than 5.00. For the same compound, the pIC50 [4] was 8.84 and the “inhibition (INH)” value [7] was “Active”.

O=C(Nc1cc(Cl)cc(Cl)c1)c1ccc2cn[nH]c2c1 was tested, and the pIC50 [1] was less than 5.00, the Ratio IC50 (Homo sapiens) was greater than 29 and the pIC50 [2] was 6.47. It also gave a pIC50 [3] of less than 5.00 and a pIC50 [4] of 6.37.

Cn1ncc2cc(/C=N/c3ccc(Cl)c(Cl)c3)ccc21 showed a pIC50 [1] of less than 5.00, a Ratio IC50 (Homo sapiens) of 9710 and a pIC50 [2] of 8.99. For the same compound, the pIC50 [3] was greater than 5.00 and the pIC50 [4] was 8.34.

Work on O=C(Nc1ccc(Cl)c(Cl)c1)c1ccc2nncn2c1 yielded a pIC50 [1] of less than 5.00, a Ratio IC50 (Homo sapiens) greater than 4 and a pIC50 [2] of 5.64. For the same compound, the pIC50 [3] was less than 5.00 and the pIC50 [4] was less than 5.00.

With Clc1ccc(/N=C/c2ccc3[nH]ncc3c2)cc1Cl the pIC50 [1] was less than 5.00 and the pIC50 [3] was greater than 5.00.

With O=C(Nc1ccc2cn[nH]c2c1)c1cnc(N2CCOCC2)c(Cl)c1 the pIC50 [1] was less than 5.00, the Ratio IC50 (Homo sapiens) was greater than 9 and the pIC50 [2] was 6.66. For the same compound, the pIC50 [3] was less than 5.00 and the pIC50 [4] was 5.70.

Work on COc1ccc(NC(=O)c2ccc3cn[nH]c3c2)cc1Cl yielded a pIC50 [1] of less than 5.00, a Ratio IC50 (Homo sapiens) of 8 and a pIC50 [2] of 5.89. For the same compound, the pIC50 [3] was less than 5.00 and the pIC50 [4] was greater than 5.00.

In the case of O=C(Nc1ccc(Cl)c(Cl)c1)c1ccc2cn[nH]c2c1, the pIC50 [1] was greater than 5.00, the Ratio IC50 (Homo sapiens) was greater than 49 and the pIC50 [2] was 7.17. For the same compound, the pIC50 [3] was 5.48 and the pIC50 [4] was 6.33.

In the case of O=C(Nc1ccc2[nH]ncc2c1)c1ccc(Cl)c(Cl)c1, the pIC50 [1] was less than 5.00, the Ratio IC50 (Homo sapiens) was 806 and the pIC50 [2] was 7.91. It also gave a pIC50 [3] of less than 5.00 and a pIC50 [4] of 6.86.

In the case of O=C(Nc1ccc(F)c(F)c1)c1ccc2cn[nH]c2c1, the pIC50 [1] was less than 5.00, the Ratio IC50 (Homo sapiens) was greater than 7 and the pIC50 [2] was 5.89. It also gave a pIC50 [3] of less than 5.00 and a pIC50 [4] greater than 5.00.
